Experimental findings from patent US9670204B2, “Compounds and pharmaceutical compositions thereof for the treatment of inflammatory disorders” (Galapagos NV, priority 2013, dated 2017) are described below.

SMILES strings stand for the structures. Bounds are passed on as bounds.

This experiment deals with hENPP2 (UniProtKB/SwissProt Q13822) (Homo sapiens (Human), UniProt Q13822). Description: hENPP2 biochemical assay, LPC as substrate. The conditions noted are these: LPC (palmitoyl 16:0) as substrate. As for the experimental part:
The principle of the assay consists in quantifying the released choline with an enzymatic method using choline oxidase and peroxidase. Choline oxydation by choline oxydase releases betaine and peroxide. The latter is quantified in presence of HRP that converts the peroxide detection agent TOOS and 4-aminoantipyrine into quinoneimine dye. The appearance of quinoneimine dye is measured spectrophotometrically at 555 nm and is proportional to the amount of choline released by ENPP2. Inhibition of ENPP2 will result in a decrease of the signal.
Compound IC50 values are determined in a hENPP2 (UniProtKB/SwissProt Sequence ref Q13822) biochemical assay using LPC as substrate.
The enzyme is diluted in 50 mM Tris-HCl pH 8.5, 500 mM NaCl, 5 mM KCl, 10 mM CaCl2, 0.1% fatty acid free BSA in a total volume of 10 μL. the reaction is started by the addition of 10 μL of 150 μM LPC (palmitoyl 16:0) diluted in the same buffer as described above and the mixture is incubated at 37° C. for 30 min. The reaction is terminated and choline quantified by the addition of a 25 μL of a mixture containing 0.6 U/mL of choline oxidase, 0.6 U/mL of peroxydase, 1.8 mM TOOS, 1.2 mM amino-antipyrine, 20 mM EGTA (stop-developer solution) diluted in the buffer described above. […] is read on the Envision after an incubation of 30 min at room temperature (Excitation 555 nm, excitation light=70%).
As a reminder, the IC50 is the concentration at which inhibition is half-maximal. A higher IC50 goes with a need for much substance. `CCc1nc2ccc(N3CCN(CC(=O)N4CC(F)C4)CC3)cn2c1N(C)c1nc(-c2ccc(F)cc2C#N)cs1` [Compound 164, 2-(2-((2-ethyl-6-(4-(2-(3-fluoroazetidin-1-yl)-2-oxoethyl)piperazin-1-yl)imidazo[1,2-a]pyridin-3-yl)(methyl)amino)thiazol-4-yl)-5-fluorobenzonitrile] gave an IC50 of 1e-05 to 0.1 µM.
`CCc1nc2ccc(N3CCN(CC(=O)NC)CC3)cn2c1N(C)c1nc(-c2ccc(F)cc2C#N)c(C)s1` [Compound 163, 2-(4-(3-((4-(2-cyano-4-fluorophenyl)-5-methylthiazol-2-yl)(methyl)amino)-2-ethylimidazo[1,2-a]pyridin-6-yl)piperazin-1-yl)-N-methylacetamide] gave an IC50 of 0.5 to 1 µM.
On to `CCc1nc2ccc(N3CCN(CC(=O)N4CC(CO)C4)CC3)cn2c1N(C)c1nc(-c2ccc(F)cc2)cs1` [Compound 34, 2-(4-(2-ethyl-3-((4-(4-fluorophenyl)thiazol-2-yl)(methyl)amino)imidazo[1,2-a]pyridin-6-yl)piperazin-1-yl)-1-(3-(hydroxymethyl)azetidin-1-yl)ethanone], for which the IC50 lay in the range of 0.1 to 0.5 µM.
In turn, `CCc1nc2ccc(C3CCN(C(=O)CN4CC(F)(F)C4)CC3)cn2c1N(C)c1nc(-c2ccc(F)cc2)cs1` [Compound 131] had a half-inhibitory concentration (IC50) of 0.1 to 0.5 µM.
Turning to `CCc1nc2ccc(C3CCN(C(=O)CCNC)CC3)cn2c1N(C)c1nc(-c2ccc(F)cc2)cs1` [Compound 132, 1-(4-(2-ethyl-3-((4-(4-fluorophenyl)thiazol-2-yl)(methyl)amino)imidazo[1,2-a]pyridin-6-yl)piperidin-1-yl)-3-(methylamino)propan-1-one], the IC50 is > 1 µM.
With `CCc1nc2ccc(N3CCN(C(=O)C4(N)CC4)CC3)cn2c1N(C)c1nc(-c2ccc(F)cc2)cs1` [Compound 202, (1-aminocyclopropyl)(4-(2-ethyl-3-((4-(4-fluorophenyl)thiazol-2-yl)(methyl)amino)imidazo[1,2-a]pyridin-6-yl)piperazin-1-yl)methanone], the IC50 was > 1 µM.
For `CCc1nc2ccc(C3CCN(CC(=O)NCCCO)CC3)cn2c1N(C)c1nc(-c2ccc(F)cc2)cs1` [Compound 123, 2-(4-(2-ethyl-3-((4-(4-fluorophenyl)thiazol-2-yl)(methyl)amino)imidazo[1,2-a]pyridin-6-yl)piperidin-1-yl)-N-(3-hydroxypropyl)acetamide], the IC50 was > 1 µM.
In the case of `CCc1nc2ccc(N3CCN(CC(=O)N4CCCC4)CC3)cn2c1N(C)c1nc(-c2ccc(F)cc2)cs1` [Compound 31, 2-(4-(2-ethyl-3-((4-(4-fluorophenyl)thiazol-2-yl)(methyl)amino)imidazo[1,2-a]pyridin-6-yl)piperazin-1-yl)-1-(pyrrolidin-1-yl)ethanone], the IC50 lay in the range of 1e-05 to 0.1 µM.
As to `CCc1nc2ccc(C3CCN(CC(=O)N(C)CCO)CC3)cn2c1N(C)c1nc(-c2ccc(F)cc2)cs1` [Compound 119, 2-(4-(2-ethyl-3-((4-(4-fluorophenyl)thiazol-2-yl)(methyl)amino)imidazo[1,2-a]pyridin-6-yl)piperidin-1-yl)-N-(2-hydroxyethyl)-N-methylacetamide], the IC50 was 0.5 to 1 µM.
`CCc1nc2ccc(C3CCN(S(C)(=O)=O)CC3)cn2c1N(C)c1nc(-c2ccc(F)c(F)c2)cs1` [Compound 83, 4-(3,4-difluorophenyl)-N-(2-ethyl-6-(1-(methylsulfonyl)piperidin-4-yl)imidazo [1,2-a]pyridin-3-yl)-N-methylthiazol-2-amine]: the IC50 is > 1 µM.
Consider `CCc1nc2ccc(N3CCN(CC(=O)N4CC(F)(F)C4)CC3)cn2c1N(C)c1nc(-c2ccc(F)cc2C#N)cs1` [Compound 165, 2-(2-((6-(4-(2-(3,3-difluoroazetidin-1-yl)-2-oxoethyl)piperazin-1-yl)-2-ethylimidazo[1,2-a]pyridin-3-yl)(methyl)amino)thiazol-4-yl)-5-fluorobenzonitrile], for which the IC50 is 0.1 to 0.5 µM.
Consider `CCc1nc2ccc(C3CCN(S(C)(=O)=O)CC3)cn2c1N(C)c1nc(-c2ccc(OC(F)(F)F)cc2)cs1` [Compound 85, N-(2-ethyl-6-(1-(methylsulfonyl)piperidin-4-yl)imidazo [1,2-a]pyridin-3-yl)-N-methyl-4-(4-(trifluoromethoxy)phenyl)thiazol-2-amine], for which the IC50 is > 1 µM.
In the case of `CCc1nc2ccc(C3CCN(C(=O)CNC)CC3)cn2c1N(C)c1nc(-c2ccc(F)cc2)cs1` [Compound 127, 1-(4-(2-ethyl-3-((4-(4-fluorophenyl)thiazol-2-yl)(methyl)amino)imidazo[1,2-a]pyridin-6-yl)piperidin-1-yl)-2-(methylamino)ethanone], the IC50 was 0.5 to 1 µM.
As to `CCc1nc2ccc(C3CCN(CC4CNC(=O)O4)CC3)cn2c1N(C)c1nc(-c2ccc(F)cc2)cs1` (centres unmarked) [Compound 122, 5-((4-(2-ethyl-3-((4-(4-fluorophenyl)thiazol-2-yl)(methyl)amino)imidazo[1,2-a]pyridin-6-yl)piperidin-1-yl)methyl)oxazolidin-2-one], the half-maximal inhibitory concentration (IC50) lay in the range of 0.5 to 1 µM.
As for `CCc1nc2ccc(C3CCN(CC(=O)N4CC(CO)C4)CC3)cn2c1N(C)c1nc(-c2ccc(F)cc2)c(CO)s1` [Compound 152], the figure is 0.5 to 1 µM; as for `CCOC(=O)C(=O)N1CCN(c2ccc3nc(CC)c(N(C)c4nc(-c5ccc(F)cc5)cs4)n3c2)CC1` [Compound 228, ethyl 2-(4-(2-ethyl-3-((4-(4-fluorophenyl)thiazol-2-yl)(methyl)amino)imidazo[1,2-a]pyridin-6-yl)piperazin-1-yl)-2-oxoacetate], > 1 µM.
Turning to `CCc1nc2ccc(C3=CCN(CC(=O)N(C)C)CC3)cn2c1N(C)c1nc(-c2ccc(F)cc2)ns1` [Compound 190, 2-(4-(2-ethyl-3-((3-(4-fluorophenyl)-1,2,4-thiadiazol-5-yl)(methyl)amino)imidazo[1,2-a]pyridin-6-yl)-5,6-dihydropyridin-1(2H)-yl)-N,N-dimethylacetamide], the IC50 is > 1 µM.
In turn, `CCc1nc2ccc(C3CCN(CC(=O)N(C)CC#N)CC3)cn2c1N(C)c1nc(-c2ccc(F)cc2)cs1` [Compound 121, N-(cyanomethyl)-2-(4-(2-ethyl-3-((4-(4-fluorophenyl)thiazol-2-yl)(methyl)amino)imidazo[1,2-a]pyridin-6-yl)piperidin-1-yl)-N-methylacetamide] registered an IC50 of 0.5 to 1 µM.
The molecule `CCc1nc2ccc(C3CCN(S(C)(=O)=O)CC3)cn2c1N(C)c1nc(-c2ccc(F)cc2CO)cs1` [Compound 107, (2-(2-((2-ethyl-6-(1-(methylsulfonyl)piperidin-4-yl)imidazo[1,2-a]pyridin-3-yl)(methyl)amino)thiazol-4-yl)-5-fluorophenyl)methanol] yielded an IC50 of 0.5 to 1 µM.
`CCc1nc2ccc(N3CCN(CC(=O)N4CC(F)(F)C4)CC3)cn2c1N(C)c1nc(-c2ccc(F)cc2)cs1` [Compound 29, 1-(3,3-difluoroazetidin-1-yl)-2-(4-(2-ethyl-3-((4-(4-fluorophenyl)thiazol-2-yl)(methyl)amino)-imidazo[1,2-a]pyridin-6-yl)piperazin-1-yl)ethanone] came in with an IC50 of 0.1 to 0.5 µM.
As to `CCc1nc2ccc(C3=CCN(S(C)(=O)=O)CC3)cn2c1N(C)c1nc(-c2ccc(C(F)(F)F)cc2)cs1` [Compound 193, N-(2-ethyl-6-(1-(methylsulfonyl)-1,2,3,6-tetrahydropyridin-4-yl)imidazo[1,2-a]pyridin-3-yl)-N-methyl-4-(4-(trifluoromethyl)phenyl) thiazol-2-amine], the IC50 is > 1 µM.
Turning to `CCc1nc2ccc(C3CCN(CC4COC(=O)N4)CC3)cn2c1N(C)c1nc(-c2ccc(F)cc2)cs1` (centres unmarked) [Compound 198, 4-((4-(2-ethyl-3-((4-(4-fluorophenyl)thiazol-2-yl)(methyl)amino)imidazo[1,2-a]pyridin-6-yl)piperidin-1-yl)methyl)oxazolidin-2-one], the IC50 was > 1 µM.
With `CCc1nc2ccc(C3CCN(S(C)(=O)=O)CC3)cn2c1N(C)c1nc(-c2ccc(F)cc2)c(C(=O)OC)s1` [Compound 104, methyl 2-((2-ethyl-6-(1-(methylsulfonyl)piperidin-4-yl)imidazo [1,2-a]pyridin-3-yl)(methyl)amino)-4-(4-fluorophenyl)thiazole-5-carboxylate], the IC50 is > 1 µM.
On to `CCOC(=O)C(C)N1CCN(c2ccc3nc(CC)c(N(C)c4nc(-c5ccc(F)cc5)cs4)n3c2)CC1` (centres unmarked) [Compound 37, ethyl 2-(4-(2-ethyl-3-((4-(4-fluorophenyl)thiazol-2-yl)(methyl)amino)imidazo[1,2-a]pyridin-6-yl)piperazin-1-yl)propionoate], for which the IC50 was > 1 µM.
For `CCc1nc2ccc(C3=CCN(S(C)(=O)=O)CC3)cn2c1N(C)c1nc(-c2ccc(OC)cc2)cs1` [Compound 71, N-(2-ethyl-6-(1-(methylsulfonyl)-1,2,3,6-tetrahydropyridin-4-yl)imidazo[1,2-a]pyridin-3-yl)-4-(4-methoxyphenyl)-N-methylthiazol-2-amine], the IC50 is > 1 µM.
With `CCc1nc2ccc(C3CCN(CC4CN(C)C(=O)O4)CC3)cn2c1N(C)c1nc(-c2ccc(F)cc2)cs1` (centres unmarked) [Compound 195, 5-((4-(2-ethyl-3-((4-(4-fluorophenyl)thiazol-2-yl)(methyl)amino)imidazo[1,2-a]pyridin-6-yl)piperidin-1-yl)methyl)-3-methyloxazolidin-2-one], the IC50 was > 1 µM.
